The source of these data is patent publication US4120951A, “Polypeptide hormones of the thymus” (Sloan-Kettering Institute for Cancer Research, priority 1977, dated 1978).

Ends that are not written are not given here.

The test system of data set [1] is neuromuscular transmission. Nature of the data set: Electromyographic assay of neuromuscular transmission in mice after intraperitoneal injection. The data set is classed as in vivo. The conditions noted are these: for activity of the isolated fraction in producing neuromuscular block: QAE-Sephadex fractions, FIG. 3; for therapeutically effective amount: at least about; for dose producing a statistically significant (P < 0.001) decrement in the electromyographic response: 5 days after dose, supramaximal nerve stimulation 50 impulses per second; for mean decrement: height of tenth muscle action potential as % of the first: 5 days after doses above threshold, controls 94 ± 2%; for dose range at which active: test not stated. As to the method: To determine the neuromuscular action of Thymin I and Thymin II, the electromyographic response of mice 5 days after various doses of Thymin I or Thymin II is summarized in FIG. 4. Bovine serum albumin (0.5 mg/ml, 0.9% saline) was used as a protein stabilizer and controls were injected with the solvent alone.
In 15 control mice sampled at 75 sites the height of the tenth muscle action potential was 94 ± 2% (mean ± s.e.m.) of the height of the first. The mean values and s.e.m. (vertical bars) are shown for groups of 4-10 mice given various doses of Thymin I(o) and Thymin II (.quadrature.). Statistical significances of differences from the controls were calculated by Student's t-test and are shown by solid symbols (P < 0.001 ), half solid symbols (0.05 > P < 0.001) and open symbols (P > 0.05).
Mice were given 100 ng of Thymin I or solvent and five mice from each group were tested at various times. With supramaximal nerve stimulation at 50 impulses per second the height of the tenth muscle action potential was expressed as a percentage of the first. This change was calculated for five points in each of five to ten mice from each group. For each time point the change in Thymin-treated mice was expressed as a percentage of the change in solvent-treated control mice and the statistical significance of the difference was assessed by Student's t-test. A statistically significant (P < 0.001) abnormality in the electromyogram was first evident at 18 hours, was maximal at 24 hours and persisted through 5 days.
To make the determinations described in FIGS. 4 and 5, extracts were injected into test animals and neuromuscular transmission was studied after an interval of one to five days. Initial 100 g guinea pigs were injected intraperitoneally; neuromuscular transmission was studied in vitro with a preparation of the phrenic nerve and hemidiaphragm. Subsequently, 200 g rats were used; fractions were injected subcutaneously and neuromuscular transmission was assessed electromyographically. […] Female Swiss-Webster mice weighing 25-35 g were injected intraperitoneally, groups of five to ten mice being used to test each fraction. The animals were anesthetized with urethane and electromyography was performed as described. The muscle action potentials were recorded in each mouse following supramaximal nerve stimulation with 10 impulses at a rate of 50 per second. Five sites were sampled in each mouse and for each group of mice the mean standard deviation and s.e.m. were calculated for the change in the height of the muscle action, potential being expressed as a percentage of the height of the first impulse.
The statistical significance of differences found were assessed by student's t-test.

In data set [2] the test system is mouse bone marrow cells. Nature of the data set: Cytotoxic inhibition test for induction of TL and Thy-1 antigens. The conditions noted are these: for absorption of antibodies directed against TL or Thy-1 by treated cells: unfractionated bone marrow cells, 100 ng/ml, 18 hours. The data set is classed as cell-based. As to the method:
Thymin I and Thymin II were isolated from bovine thymus as described. Each was dissolved in phosphate buffered saline (containing 1 mg/ml of bovine serum albumen to minimize adsorbtive losses), distributed into 2 μg lots and lyophilized. Each polypeptide was reconstituted in tissue culture medium at the desired concentrations just prior to use.
(§1) Bone marrow cells were obtained from the femoral marrow. Both spleen and marrow cells were teased into single cell suspensions and washed three times in RPMI 1640 medium supplemented with 10 mM Hepes and 100 U/ml of penicillin and 100 μg/ml of streptomycin. The cells were then suspended in the same medium with 10% bovine serum at a concentration of 5.0×10^6 cells/ml. One milliliter of this suspension was incubated with an appropriate dilution of thymin in 16 mm plastic petrie dishes in a humidified atmosphere containing 5% CO2 in air. At the end of the incubation the cells were washed twice and held at 4° C. at a concentration of 5.0×10^6 cells/ml in culture medium until tested for the presence of TL or Thy-1(0).
ASL-1, a TL positive, Thy 1-2 (0-C3H) positive lymphoma of A strain mice was used as the target cell in all titrations of the antisera used in these experiments, and in the cytotoxic inhibition test to be described below. The lymophoma was maintained by weekly intraperitoneal passage in A/J mice. Lymphoma cells were labelled with Cr^51 and used as target cells in the cytotoxic inhibition test.
Antisera to either TL or Thy-1 (0) were titered to determine the quantity of antibody which was required to kill 50% of the target cells in a standard suspension. The appropriate amount of antiserum was added to each well of a microtiter plate with various dilutions of the cells being tested for their antigen content. The total volume was 0.15 ml. Cells expressing the antigen against which the antiserum was directed absorbed varying amounts of the antibody, and rendered less available to react with the Cr^51 labelled target cells which were added subsequently. The concentration of antibody used was extremely critical to the sensitivity of the test. The antisera to TL or Thy-1 (0) and the cells being tested for their antigen content were incubated together at 4° C. for 90 minutes. After this incubation 50,000 target cells in a volume of […] were added and the incubation continued in the cold for an additional 30 minutes to permit the sensitization of the target cells by the remaining unabsorbed antibody. The plates were then centrifuged at 1,500 rpm for 10 minutes and the supernatant fluid removed. The pelleted cells were resuspended in 0.1 ml or RPMI 1640, containing 4% fresh rabbit serum as a source of complement, and incubated for 45 minutes at 37° C. The cells were then repelleted by centrifugation and a 0.075 ml aliquot of the supernatant fluid was counted in an automatic gamma spectrometer to determine the amount of Cr^51 released from the target cells. All assays were performed in duplicate and the results were expressed by calculating the number of cells required to reduce the relative cytotoxic index (RCI) to 0.5. The RCI was calculated as follows: [formula]

The subject of data set [3] is bone marrow cells. Nature of the data set: Direct cytotoxic test (trypan blue) for TL induction, bone marrow cells. The format is cell-based, mouse. As to the method: as §1
(§2) Bone marrow and spleen cells were obtained by flotation in BSA gradients similar to those used by Komuro and Boyse (Lancet, 10, 39, 1964). These cells were tested for their susceptibility to anti TL and Thy-1(0) antibodies in a direct cytotoxicity test, using the uptake of trypan blue as a measure of cell death.
(§3) The actual number of cells induced could not be determined in the cytotoxic inhibition assay since this test is a measure of the total antigen present in the culture. […] However, unless sufficient numbers of such cells are present they cannot be detected because of a substantial background usually found in such tests. […]

Data set [4] concerns spleen cells. Put plainly: Direct cytotoxic test (trypan blue) for TL induction, spleen cells. The format is cell-based, mouse. The conditions noted are these: 20 ng/ml, 2 hours, least dense BSA gradient fraction. As to the method:
as §1, §2, §3

[5] abbreviates: single injection of 100 ng, mice.

As for “GQFLEDPSVLTKEKLKSELVANNVTLPAGEQRKDVYVQLYLQHLTAVKR [Thymin I, H2 n--gly--gln--phe--leu--glu--asp--pro--ser--val--leu--thr--lys--glu--lys--leu--lys--ser--glu--leu--val--ala--asn--asn--val--thr--leu--pro--ala--gly--glu--gln--arg--lys--asp--val--tyr--val--gln--leu--tyr--leu--gln--his--leu--thr--ala--val--lys--arg--cooh]”, in data set [1], the “activity of the isolated fraction in producing neuromuscular block” value was “active”, the therapeutically effective amount was “at least 0.20 μg/kg of body weight” and the “dose range at which active” value is “about 0.1 mg/kg of body weight”. The “relative activity on neuromuscular transmission” value in data set [1] (compared with Thymin II) was “slightly more active”. Also, in data set [1] (mice), the “dose producing a statistically significant (P < 0.001) decrement in the electromyographic response” value is reported as “above 4 ng/mouse” and the “mean decrement: height of tenth muscle action potential as % of the first” value is recorded as 84%. In data set [1] (setting [5]), the “time at which the electromyogram abnormality was maximal” value stood at 24 h and the “time through which the electromyogram abnormality persisted” value was 5 days. In data set [1] (single injection of 100 ng, mice, P < 0.001), the “time at which the electromyogram abnormality was first evident” value is 18 h. For the same sequence, in data set [2], the “concentration of maximal activity” value is on record as 0.2-2 nanogram per mll, the “lowest concentration at which active” value is given as 20 picogram per mll and the “absorption of antibodies directed against TL or Thy-1 by treated cells” value is on record as “absorbed antibodies”. Further, in data set [2] (bone marrow cells), the “concentration giving maximal induction of TL and Thy-1 antigens” value is 2 ng/mL; the “lowest concentration producing a measurable response (induction of TL and Thy-1 antigens)” value turned out to be 20 pg/mL. Further, in data set [2] (compared with Thymin II), the “relative potency in inducing TL and Thy-1 antigens” value is reported as “slightly more potent”. In data set [3] (20 ng/ml, 2 hours, least dense BSA gradient fraction), the “bone marrow cells killed by anti TL antiserum plus complement” value is on record as 21%. In addition, the “highest value of cells killed by anti TL antiserum plus complement” value in data set [3] (other experiments, tissue not stated) is on record as at most 28%. Further, the “spleen cells killed by anti TL antiserum plus complement” value in data set [4] came to 18%.

Consider “SQFLEDPSVLTKEKLKSELVANNVTLPAGEQRKDVYVQLYLQTLTAVKR [Thymin II, H2 n--ser--gln--phe--leu--glu--asp--pro--ser--val--leu--thr--lys--glu--lys--leu--lys--ser--glu--leu--val--ala--asn--asn--val--thr--leu--pro--ala--gly--glu--gln--arg--lys--asp--val--tyr--val--gln--leu--tyr--leu--gln--thr--leu--thr--ala--val--lys--arg--cooh]”, for which, in data set [1], the “activity of the isolated fraction in producing neuromuscular block” value is “active”, the therapeutically effective amount is “at least 1.3 μg/kg of body weight” and the “dose range at which active” value is given as “about 0.1 mg/kg of body weight”. Moreover, in data set [1] (mice), the “dose producing a statistically significant (P < 0.001) decrement in the electromyographic response” value is on record as “above 32 ng/mouse” and the “mean decrement: height of tenth muscle action potential as % of the first” value was found to be 82%. In data set [2], the “concentration of maximal activity” value was 0.2-2 nanogram per mll, the “lowest concentration at which active” value was found to be 20 picogram per mll and the “absorption of antibodies directed against TL or Thy-1 by treated cells” value was “absorbed antibodies”.
